Results published in ChEMBL document CHEMBL1201862, “PubChem BioAssay data set” (2004).
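All cell lines were grown in 96-well plates and treated with compound for 48 hours. GI50 = concentration required for 50% inhibition of growth.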 The source made the active and inactive calls. Rule as the data show it: active = GI50 up to about 1.1 µM and inactive = higher.

Legend:
Assay in all cases: NCI tumour cell line growth inhibition, 48 h
HCT-116 = test system: HCT-116
CCRF-CEM = test system: CCRF-CEM
DU-145 = test system: DU-145
UACC-62 = test system: UACC-62
Malme-3M = test system: Malme-3M
MDA-MB-231 = test system: MDA-MB-231
K562 = test system: K562
M14 = test system: M14
UACC-257 = test system: UACC-257
SF-268 = test system: SF-268
SF-539 = test system: SF-539
MDA-MB-435 = test system: MDA-MB-435
TK-10 = test system: TK-10
Hs-578T = test system: Hs-578T
SK-MEL-5 = test system: SK-MEL-5
OVCAR-5 = test system: OVCAR-5
UO-31 = test system: UO-31
SF-295 = test system: SF-295

Measured: GI50

COC(=O)C(NC(=O)C(CC(=O)OC(C)(C)C)NC(=O)OC(C)(C)C)C(O)c1ccccc1 (stereo not given)
inactive: HCT-116 > 100 µM | CCRF-CEM > 100 µM | DU-145 > 100 µM | UACC-62 3.92 µM | Malme-3M > 100 µM | MDA-MB-231 > 100 µM | K562 > 100 µM | M14 > 100 µM | UACC-257 74.5 µM | SF-268 > 100 µM | SF-539 > 100 µM | MDA-MB-435 > 100 µM | TK-10 > 100 µM | Hs-578T > 100 µM | SK-MEL-5 > 100 µM | OVCAR-5 > 100 µM | UO-31 > 100 µM

O=C1NCC2(CCN(CCCC3(c4ccc(F)cc4)OCCO3)CC2)N1c1ccccc1
inactive: HCT-116 > 100 µM | CCRF-CEM > 100 µM | DU-145 > 100 µM | UACC-62 > 100 µM | Malme-3M > 100 µM | SF-295 > 100 µM | MDA-MB-231 > 100 µM | K562 > 100 µM | M14 > 100 µM | UACC-257 70.6 µM | SF-268 > 100 µM | SF-539 > 100 µM | MDA-MB-435 > 100 µM | TK-10 > 100 µM | Hs-578T > 100 µM | SK-MEL-5 > 100 µM | OVCAR-5 > 100 µM

CN1CC=C(OP(=O)(NCc2ccccc2)N(CCCl)CCCl)CC1 (stereo not given)
inactive: HCT-116 > 100 µM | CCRF-CEM > 100 µM | DU-145 > 100 µM | UACC-62 > 100 µM | Malme-3M > 100 µM | SF-295 > 100 µM | MDA-MB-231 > 100 µM | K562 > 100 µM | M14 > 100 µM | UACC-257 70.5 µM | SF-268 > 100 µM | SF-539 > 100 µM | MDA-MB-435 > 100 µM | TK-10 > 100 µM | Hs-578T > 100 µM | OVCAR-5 > 100 µM | UO-31 > 100 µM

Cc1nn(C(=O)c2ccc(Cl)cc2)c2c1C(c1ccc([N+](=O)[O-])cc1)SC(=N)N2 (stereo not given)
inactive: HCT-116 > 10 µM | CCRF-CEM > 10 µM | DU-145 > 10 µM | UACC-62 > 10 µM | Malme-3M > 10 µM | SF-295 > 10 µM | MDA-MB-231 > 10 µM | K562 > 10 µM | M14 > 10 µM | UACC-257 > 10 µM | SF-268 > 10 µM | SF-539 > 10 µM | MDA-MB-435 > 10 µM | TK-10 > 10 µM | Hs-578T > 10 µM | SK-MEL-5 > 10 µM | OVCAR-5 > 10 µM

CCCCCc1cc2cc3c(c(O)c2c(=O)[nH]1)C1(CCC3)C(=O)c2c(O)ccc(O)c2C1=O
inactive: HCT-116 > 100 µM | CCRF-CEM > 100 µM | DU-145 > 100 µM | Malme-3M > 100 µM | SF-295 > 100 µM | MDA-MB-231 > 100 µM | K562 > 100 µM | M14 > 100 µM | UACC-257 > 100 µM | SF-268 > 100 µM | SF-539 > 100 µM | MDA-MB-435 > 100 µM | TK-10 38.6 µM | Hs-578T > 100 µM | SK-MEL-5 > 100 µM | OVCAR-5 > 100 µM | UO-31 > 100 µM

COC(=O)[C@H](Cc1ccccc1)NC(=O)N(CCN(CCC#N)C(=O)N[C@H](C(=O)OC)C(C)C)c1ccccc1
inactive: HCT-116 > 100 µM | CCRF-CEM 33.7 µM | DU-145 > 100 µM | UACC-62 48.5 µM | Malme-3M 43.7 µM | SF-295 > 100 µM | MDA-MB-231 > 100 µM | M14 > 100 µM | UACC-257 32.1 µM | SF-268 > 100 µM | SF-539 > 100 µM | MDA-MB-435 85.3 µM | TK-10 > 100 µM | Hs-578T > 100 µM | SK-MEL-5 52.6 µM | OVCAR-5 > 100 µM | UO-31 > 100 µM

COC12c3ccccc3-c3ccccc3C1[C@@H](C(=O)O)[C@H]2C(=O)O (stereo not given in full)
inactive: CCRF-CEM > 10 µM | DU-145 > 10 µM | Malme-3M > 10 µM | SF-295 > 10 µM | MDA-MB-231 > 10 µM | K562 > 10 µM | M14 > 10 µM | UACC-257 > 10 µM | SF-268 > 10 µM | SF-539 > 10 µM | MDA-MB-435 > 10 µM | TK-10 > 10 µM | Hs-578T > 10 µM | SK-MEL-5 > 10 µM | OVCAR-5 > 10 µM | UO-31 > 10 µM

COc1cc(O)c(C(=O)/C=C/c2ccccc2)c(OC)c1 [FLAVOKAWAIN B]
inactive: HCT-116 5.64 µM | CCRF-CEM 2.27 µM | DU-145 7.73 µM | UACC-62 4.14 µM | Malme-3M 4.61 µM | SF-295 13 µM | MDA-MB-231 7.64 µM | M14 7.94 µM | UACC-257 10.8 µM | SF-268 4.98 µM | SF-539 3.78 µM | MDA-MB-435 4.71 µM | TK-10 6.55 µM | Hs-578T 3.2 µM | SK-MEL-5 9.27 µM | OVCAR-5 23.9 µM | UO-31 5.83 µM
